Source: patent US11692011B2, “Hepatitis B virus-derived polypeptide and anti-viral use thereof” (priority 2018, dated 2023)
No end group written: not given here.

Legend:
HIV-1 [1] = settings: HIV-1-infected MT-4 cells, 5 days, dose-dependent manner
Description: In detail, MT-4 cells were prepared at a density of 1×10^4 cells, and incubated with varying concentrations of Poly6 for 5 days. Cytotoxicity was determined using an MTT assay kit (Promega). To analyze the anti-cytotoxic effect of Poly6 from cell death caused by cytotoxicity due to HIV-infection, MT-4 cells (1×10^4 cells) were infected with HIV-1 (1×10^4 CCID50), incubated for five days, and then subjected to cell viability assays. In addition, to determine HIV-1 titers in the supernatant, p24 ELISA was performed. […] Similar to AZT, cytopathic inhibitory effects of Poly6 on HIV-1-infected MT-4 cells were analyzed.

HepG2 cells = experiment: Cell viability (MTS assay), HepG2; type: cell-based, human; settings: up to 10 μM
Description: (§2) In detail, HepG2, HepG2.2.15, and HepG2-hNTCP-C4 cells (expressing NTCP receptors on the cell membrane) were plated in a 96 microplate (1×10^4 cells/well), and incubated for 5 days with increasing concentrations of ETV (30 nM) and Poly6. For an MTS assay, a cell-titer 96 aqueous one solution was directly added to each well, and the plate was incubated for 3 hr. The plate was read at 490 nm, and each analysis was repeated in triplicate.

HepG2.2.15 cells = settings: up to 10 μM
Description: as §2

HepG2-hNTCP-C4 cells = settings: up to 10 μM
Description: as §2

MT-4 cells = experiment: Cytotoxicity assay (MTT) in MT-4 cells; settings: up to 25 μM, 5 days
Description: Cell viability against the treated reagents was assessed by an MTT assay.
In detail, MT-4 cells were prepared at a density of 1×10^4 cells, and incubated with varying concentrations of Poly6 for 5 days. Cytotoxicity was determined using an MTT assay kit (Promega).

HBV [2] = experiment: Anti-HBV effect in HepG2.2.15 or pHBV-1.2x-WT transfected HepG2 cells (HBsAg/HBeAg ELISA, Q-PCR, Southern blot); type: cell-based; settings: for e antigen / s antigen: treated for 48 hr
Description: In this Experimental Example, HBV polymerase-derived peptides having anti-HBV effects were identified, and cell viability upon treatment thereof was analyzed. […] Then, quantitative PCR and ELISA were performed to examine virion replication and HBV surface antigen (HBsAg).
Chronic HBV infection is known to cause severe liver diseases such as cirrhosis and hepatocellular carcinoma, unlike acute infection. Therefore, it is important to develop anti-HBV drugs that overcome chronic infections. However, since the HBV genome is integrated into the host chromosome, the complete removal of the virus from human liver and serum remains a difficult problem. Therefore, in this Experimental Example, to evaluate the anti-viral effect of Poly6, HepG2.2.15 permanent cell line that continuously expresses HBV was treated with Poly6. Further, HepG2 cells were seeded in a 6-well plate, and then transiently transfected with pHBV-1.2×-WT. […] To measure secreted HBsAg and HBeAg in culture supernatants, HBsAg (BIOKIT) and HBeAg (AccuDiag) ELISA were performed according to experimental methods provided. For detection of 8-hydroxy-2′-deoxyguanosine (8-OHdG) activity, an 8-OHdG assay kit (OxiSelect Oxidative DNA Damage ELISA kit, Cell Biolabs) and ELISA were performed according to the manufacturer's protocol.
To measure extracellular virion secretion, Southern blot analysis was performed. In detail, before ultra-centrifugation at 4° C. and 24,000 rpm for 3 hr, cell debris was removed, and virions were precipitated from the supernatant using 8% PEG6000 (Sigma) on ice for 1 hr. Pellets were harvested with PBS, and HBV DNA was collected using a QIAamp DNA mini kit (QIAGEN) according to the manufacturers instructions. Viral DNA was measured using quantitative real-time PCR (Q-PCR). PCR amplification was performed using a QPCR primer set targeting a small surface gene, which is designed to amplify an a101-bp product (Table 2). Q-PCR was performed using a commercial SensiFAST SYBR Lo-ROX kit (BIOLINE) and an HBV Genesig standard kit (Primer design) to calibrate a viral load. In addition, to detect extracellular HBV DNA, supernatants were collected and HBV particles were precipitated using […] (Sigma) as described above. Virus pellets were collected from PBS and DNA was extracted with a lysis buffer (0.25% SDS, 250 mM Tris-HCl, pH 7.4 and 250 mM EDTA). Purified HBV DNA was separated on a 1% agarose gel, transferred to a nylon membrane (Hybond N+; Amersham) by Southern blotting, and hybridized with a 32P-labeled wild-type, full length HBV DNA probe. Analysis was performed using a random primer DNA labeling kit (TaKaRa). Autoradiography was performed and analyzed using a BAS 2500 image analyzer (Fuji Photo Film).

HIV-1 [3] = settings: 10 μM, 2 days, HIV-1-infected MT-4 cells
Description: To evaluate anti-HIV-1 effects of the three polypeptides, cell-based anti-viral effects were analyzed. MT-4 cells (4×10^5 cells) were infected with HIV-1 (4×10^5 CCID50) for 1 hour. The MT-4 cells were obtained from NIH/AIDS Research and Reference Reagent Program. 293FT cells were transfected for 48 hr with HIV-1 using a pBR_HIV-1_M_NL4-3_IRES_eGFP vector (DS441) which co-expresses Nef and enhanced green fluorescence protein (eGFP) from a single bicistronic RNA, and Lipofectamine 2000 reagent (Life Technologies). A supernatant containing a viral precursor HIV-1 was harvested, and the viral titer was determined using p24 ELISA (ABL). For amplification of infectious HIV-1, MT-4 cells were infected with the viral precursor HIV-1 at a multiplicity of infection (MOI) of 0.5 for 72 hr. […]
In this regard, DMSO and AZT were purchased from Sigma-Aldrich. After 2 days of incubation, GFP images were obtained using a fluorescence microscope. The relative GFP intensity was determined using an ImageJ software program (National Institutes of Health) in pixels per area. […] Cell viability against the treated reagents was assessed by an MTT assay.
In detail, MT-4 cells were prepared at a density of 1×10^4 cells, and incubated with varying concentrations of Poly6 for 5 days. Cytotoxicity was determined using an MTT assay kit (Promega). […]

[4] = tested on: mitochondrial reactive oxygen species (mtROS); experiment: Mitochondrial reactive oxygen species (MitoSox, flow cytometry) in HepG2 cells; type: cell-based, human; settings: for production of reactive oxygen species (mtROS) by mitochondrial stress: HepG2 cells, 2 hr to 24 hr, compared with PBS, rotenone 0.5 μM
Description: After culturing the cells for an appropriate time, the cells were incubated with 5 μM of MitoSox (Molecular probes) at 37° C. for 30 min. For flow cytometry, cell pellets were re-suspended in FACS buffer (1% FBS and 1 mM EDTA in PBS) and fixed with 4% paraformaldehyde. To prevent mitochondrial dysfunction, 10 μM of MitoTempo (SigmaAldrich) was pretreated for 12 hr, and 0.5 μM of rotenone (SigmaAldrich) reagent was used as a positive control for ROS induction through mitochondrial stress.

IFN-I = IFN-I related mRNA levels in HepG2-2.15 cells; type: cell-based, human; settings: compared with PBS group
Text: IFN-I is induced by host cells to regulate viral infection (Stetson & Medzhitov, 2006). Therefore, to examine the effect of Poly6 on IFN-I production in HepG2-2.15 cells and mouse liver, mRNA levels of IFN-β, RIG-I, and ISG15 were examined.
In addition, to measure IFN levels by indirectly using a luciferase reporter gene for IFN-I bioassay and neutralization analysis, hMH55-293-ISRE cells was used, into which interferon sensitive response element (ISRE) associated with the luciferase reporter gene was inserted at the 3′-end using 5 μg of puromycin (Sigma Aldrich). After collecting supernatants from cells treated with each reagent for 24 hr or 48 hr, the supernatants were added to hMH55-293-ISRE cells for 6 hr. After incubation, cells were washed with PBS, and lysed with a reporter lysis buffer (E1500, Promega) at room temperature for 30 min. A luciferase assay reagent (E1500, Promega) was added and luminescence was measured using a TECAN m200 reader (TECAN).
(§1) Through the combination treatment of entecavir, which is currently used as an HBV anti-viral agent having a mechanism whereby activity of HBV polymerase in the nucleus is inhibited and converted to a phosphorylated form, and Poly6, which was confirmed to increase IFN-I, its anti-HBV effect and synergistic effect of IFN-I increase were examined. HepG2-2.15 cells were incubated at a density of 5×10^5 cells/well on a 6-well culture plate for 24 hr, and treated with PBS, ETV, or Poly6 alone or in combination of two substances. After incubating the cells for 48 hr, supernatants were collected, and subjected to ELISA, qPCR, and LDH assay.
Meanwhile, to examine a synergistic effect of the combination treatment of two substances with respect to the increase level of IFN-I, mRNAs of single treatment groups and combination treatment groups were extracted, and IFN-α, IFN-β, and TNF-α expression levels were observed. […] In addition, IFN levels were indirectly measured using a luciferase reporter gene of hMH55-293-ISRE cell.

HBV [5] = experiment: Combination treatment of entecavir and Poly6 in HepG2-2.15 cells (ELISA, qPCR); type: cell-based; settings: HepG2-2.15, 48 hr
Description: as §1

[6] = compared with PBS (combination vs each single treatment)

Cc1cn([C@H]2C[C@H](N=[N+]=[N-])[C@@H](CO)O2)c(=O)[nH]c1=O [AZT, 3-azido-3-deoxythymidine]
cell protective effect (cytopathic inhibitory effect) (HIV-1 [1]): significant cell protective effect

GRLVFQ [Poly6, GRLVFQ]
cytotoxic activity / cell viability, HepG2 (HepG2 cells): did not exert significant cytotoxic activity
cytotoxic activity / cell viability, HepG2.2.15 (HepG2.2.15 cells): did not exert significant cytotoxic activity
cytotoxic activity / cell viability, HepG2-hNTCP-C4 (HepG2-hNTCP-C4 cells): did not exert significant cytotoxic activity
cytotoxic activity against MT-4 cells (MTT) (MT-4 cells): did not exert significant cytotoxic activity

GRLVFQT (Hepatitis B virus) [Poly7]
e antigen (HBV [2]): reduced
s antigen (HBV [2]): reduced
virus production (HIV-1 titers by GFP imaging and p24 ELISA) (HIV-1 [3]): reduced

CC1(C)CC(NC(=O)C[P+](c2ccccc2)(c2ccccc2)c2ccccc2)CC(C)(C)N1[O] [MitoTEMPO]
mitochondrial reactive oxygen species increased by rotenone and Poly6, after antioxidant treatment ([4]; MitoTempo 10 μM pretreated 12 hr): reduced again

C=C1[C@H](CO)[C@@H](O)C[C@@H]1n1cnc2c(=O)[nH]c(N)nc21 [ETV, entecavir]
viral replication levels (viral titers) (HBV [2]; ETV 30 nM, Poly6 10 μM, 2 days): reduced by ETV, but there was no statistical significance
extracellular virion secretion (Southern blot) (HBV [2]; compared with PBS): clearly decreased
production of reactive oxygen species (mtROS) by mitochondrial stress [4]: not observed
mRNA level of IFN-β (IFN-I): no statistical significance
mRNA level of ISG15 (IFN-I): no statistical significance
mRNA level of RIG-I (IFN-I): no statistical significance
extracellular HBV DNA levels (HBV [5]; compared with PBS (combination also vs single treatment)): statistically significantly reduced
level of extracellular e antigen (HBV [5]; [6]): no significant reduction effect
level of extracellular s antigen (HBV [5]; [6]): no significant reduction effect

GRLVF (Hepatitis B virus) [Poly5]
e antigen (HBV [2]): reduced
s antigen (HBV [2]): reduced
virus production (HIV-1 titers by GFP imaging and p24 ELISA) (HIV-1 [3]): reduced

C=C(C)[C@H]1Cc2c(ccc3c2O[C@@H]2COc4cc(OC)c(OC)cc4[C@@H]2C3=O)O1 [rotenone]
production of reactive oxygen species (mtROS) by mitochondrial stress [4]: significantly increased
